Measured values as given in patent US20230097253A1, “NOVEL QUINAZOLINE COMPOUND AS THERAPEUTIC AGENT FOR METABOLIC DISORDERS” (BIOWAY., INC, priority 2020, published 2023).

Test system: steatosis-induced Huh7 cells
Assay: Quantitative analysis of mRNA of lipogenesis-related factors (qRT-PCR)
Format: cell-based
Conditions: 250 μM PA, 0.5 μM, 24 hours, compared to the control group, FIG. 9-B
Experimental: To induce steatosis in Huh-7 cells in each well except for control cells, the Huh-7 cells were treated with PA bound to 2% BSA at a concentration of 250 μM except for the control, and the control cells were pretreated with 2% BSA without FA.
The cells in each well were treated with the compound of Chemical Formula 2 according to the present invention 0.5 μM and then cultured for 24 hours. The control cells and PA treated cells were treated with DMSO. All media were aspirated and the cells were gently washed 3 times with cold PBS.
Additionally, the total RNA was extracted using the RNeasy RNA isolation kit (Qiagen, Hilden, Germany).
Additionally, 10 μL of […] per mL of a cell lysis solution was additionally prepared.
Additionally, the cells were washed twice with cold PBS and 350 μL of RNA lysis buffer was added thereto.
Additionally, 70% EtOH was added to the lysate in an equal volume, mixed by pipetting, transferred to a spin column, and centrifuged at 8,000×g for 15 seconds.
Additionally, the flow-through solution was removed and 700 μL of a wash solution was added to the spin column, centrifuged at 8,000×g, and the flow-through solution was removed. […]
Additionally, RNA concentration was measured at OD 260 nm using the Nanophotometer N60 (Implen, Munich, Germany) […]

For CC(C)C(Nc1ncnc2nc[nH]c12)c1nc2cccc(Cl)c2c(=O)n1-c1ccccc1 (centres unmarked) [BW-3290, 2-(1-((7H-purin-6-yl)amino)-2-methylpropyl)-5-chloro-3-phenylquinazolin-4(3H)-one], the “gene expression (mRNA) of FAS” value was “reduced” and the “gene expression (mRNA) of SREBP-1c” value was “reduced”.
